Experimental findings from publication PMC9181938, “Fluorinated Analogues of Lepidilines A and C: Synthesis and Screening of Their Anticancer and Antiviral Activity” (Molecules, 2022) are described below.

Data set [1] relates to Human parainfluenza virus type 3 (HPIV-3). As to the kind of experiment: Antiviral screening at 10 µM. It counts as cell-based. The conditions noted are these: antiviral screening, HPIV-3-infected cells. The procedure, abridged: (§1)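 Infected Vero, LLC-MK2, NCTC 929 or HeLa cell monolayers (MOI 0.005; HPIV-3 MOI 0.01) were treated after 1-h adsorption with compounds at 10 µM (0.1% DMSO). Cultures were incubated at 37 °C until cytopathic effect was visible. Viral infection was scored by MTT assay (OD 550/670 nm), in triplicate.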

Data set [2] has as its system Human adenovirus 5 (AdV5). The data set can be described thus: Antiviral screening at 10 µM. It is filed as cell-based. As to conditions: AdV5-infected cells. The procedure, abridged: as §1
Data set [3] deals with Human herpesvirus 1 (HSV-1). As to the kind of experiment: Antiviral screening at 10 µM. It counts as cell-based. As to conditions: antiviral screening, HSV-1-infected cells. In outline: as §1
Data set [4] has as its system Encephalomyocarditis virus (EMCV). The data set can be described thus: Antiviral screening at 10 µM. The conditions noted are these: EMCV-infected cells. It is filed as cell-based. The procedure, abridged: as §1
For data set [5], the system named is HeLa cells. As to the kind of experiment: Cytotoxicity screening at 10 µM (MTT). It is filed as cell-based, Human. As to conditions: 48 h.
The subject of data set [6] is Vero cells. The data set can be described thus: Cytotoxicity screening at 10 µM (MTT). It is filed as cell-based, Cercopithecus aethiops. As to conditions: 48 h.
Data set [7] has as its system LLC-MK2 cells. As to the kind of experiment: Cytotoxicity MTT assay (0.1–1000 µM), CC50. It is filed as cell-based, Macaca mulatta. A general note: Formazan colour is commonly taken as a measure of viable cells.
Data set [8] has as its system MRC-5 cells. The data set can be described thus: Cytotoxicity screening at 10 µM (MTT). It is filed as cell-based, Human. The conditions noted are these: 48 h.
Data set [9] deals with LLC-MK2 cells. The data set can be described thus: Cytotoxicity screening at 10 µM (MTT). It is filed as cell-based, Macaca mulatta. As to conditions: 48 h.
Data set [10] has as its system Human parainfluenza virus type 3 (HPIV-3). The data set can be described thus: Antiviral activity assay (0.1–1000 µM), IC50. It counts as cell-based. The procedure, abridged:
(§2)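 Confluent cell monolayers were infected (AdV5 and EMCV MOI 0.005, HPIV-3 MOI 0.01, 1-h adsorption; HCMV 20 PFU/well, 2-h adsorption), then incubated at 37 °C with compounds (0.1–1000 µM) in 2% FBS MEM until CPE appeared. Infection was read by MTT or, for HCMV, plaque counting. IC50 was the concentration halving plaques versus untreated infected controls.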

Data set [11] concerns NCTC clone 929 cells. The data set can be described thus: Cytotoxicity screening at 10 µM (MTT). As to conditions: 48 h. It counts as cell-based, Mus musculus.
Data set [12] deals with MRC-5 cells. The data set can be described thus: Cytotoxicity MTT assay (0.1–1000 µM), CC50. It counts as cell-based, Human. The conditions noted are these: MRC-5, MTT, 48 h; read-out: CC50 Normal Cell Lines MRC-5.
Data set [13] concerns NCTC clone 929 cells. The data set can be described thus: Cytotoxicity MTT assay (0.1–1000 µM), CC50. As to conditions: NCTC clone 929, MTT, 48 h; read-out: CC50 Normal Cell Lines NCTC Clone 929. It is filed as cell-based, Mus musculus.
The next data set concerns A549 cells. The data set can be described thus: Cytotoxicity MTT assay (0.1–1000 µM), CC50. It counts as cell-based, Human. As to conditions: 48 h, read-out: CC50 Cancer Cell Lines A549.
Data set [14] concerns Vero cells. The data set can be described thus: Cytotoxicity MTT assay (0.1–1000 µM), CC50. It is filed as cell-based, Cercopithecus aethiops. The conditions noted are these: 48 h; for CC50: read-out: CC50 Normal Cell Lines Vero.
The next data set has as its system HepG2 cells. The data set can be described thus: Cytotoxicity MTT assay (0.1–1000 µM), CC50. It is filed as cell-based, Human. The conditions noted are these: 48 h, read-out: CC50 Cancer Cell Lines HepG2.
Data set [15] deals with HeLa cells. The data set can be described thus: Cytotoxicity MTT assay (0.1–1000 µM), CC50. It counts as cell-based, Human. The conditions noted are these: MTT, 48 h, read-out: CC50 Cancer Cell Lines HeLa.
Data set [16] can be described thus: Cytotoxicity MTT assay (0.1–1000 µM), CC50. It is filed as cell-based, Mus musculus. As to conditions: Mus musculus, NCTC clone 929 cells, NCTC clone 929, MTT, 48 h; read-out: CC50 Normal Cell Lines NCTC Clone 929.
Data set [17] in a line: Cytotoxicity MTT assay (0.1–1000 µM), CC50. It counts as cell-based, Human. As to conditions: human, A549 cells, read-out: CC50 Cancer Cell Lines A549.
Data set [18] deals with Human adenovirus 5 (AdV5). The data set can be described thus: Antiviral activity assay (0.1–1000 µM), IC50. It counts as cell-based. As to conditions: Human mastadenovirus C; AdV5, MOI 0.005; read-out: IC50 AdV5. In outline: as §2
For data set [19], the system named is Human herpesvirus 1 (HSV-1). The data set can be described thus: Antiviral activity assay (0.1–1000 µM), IC50. As to conditions: Human alphaherpesvirus 1; HSV-1, MOI 0.005. It counts as cell-based.
The test system of data set [20] is Encephalomyocarditis virus (EMCV). As to the kind of experiment: Antiviral activity assay (0.1–1000 µM), IC50. As to conditions: Cardiovirus A, MOI 0.005, read-out: IC50 EMCV. It counts as cell-based. In outline:
as §2

In data set [21] the test system is Human herpesvirus 5 (HCMV). As to the kind of experiment: Antiviral activity assay (0.1–1000 µM), IC50, plaque reduction. The conditions noted are these: Human betaherpesvirus 5, 20 PFU/well. It counts as cell-based. In outline:
as §2

The nature of data set [22]: Cytotoxicity MTT assay (0.1–1000 µM), CC50. It counts as cell-based, Human. As to conditions: human, HepG2 cells, read-out: CC50 Cancer Cell Lines HepG2.
The nature of data set [23]: Cytotoxicity MTT assay (0.1–1000 µM), CC50. It is filed as cell-based, Human. The conditions noted are these: human, MRC-5 cells, MRC-5, MTT, read-out: CC50 Normal Cell Lines MRC-5.
A short description of data set [24]: Cytotoxicity MTT assay (0.1–1000 µM), CC50. It counts as cell-based, Macaca mulatta. As to conditions: Macaca mulatta, LLC-MK2 cells, LLC-MK2, MTT, 48 h; read-out: CC50 Normal Cell Lines LLC-MK2.
The nature of data set [25]: Cytotoxicity MTT assay (0.1–1000 µM), CC50. It is filed as cell-based, Cercopithecus aethiops. The conditions noted are these: Cercopithecus aethiops, Vero cells, read-out: CC50 Normal Cell Lines Vero.
Data set [26] can be described thus: Cytotoxicity MTT assay (0.1–1000 µM), CC50. It is filed as cell-based, Human. The conditions noted are these: human, HeLa cells, MTT, 48 h, read-out: CC50 Cancer Cell Lines HeLa.
The mark [27] stands for this setting: LLC-MK2, MTT, 48 h, read-out: CC50 Normal Cell Lines LLC-MK2.
The mark [28] stands for this setting: Table S2, range 0.1-1000 µM, LLC-MK2, read-out: Cell line (CC50 M) LLC-MK2.
Where [29] appears, read: Table S4, range 0.1-1000 µM, HPIV-3, read-out: IC50 (M) HPIV-3.
Setting [30] is: Human respirovirus 3, HPIV-3, MOI 0.01, read-out: IC50 HPIV-3.

Molecules are shown by their SMILES. Read-outs that look alike come from different tables or passages of the source. Where only a bound is given, the exact number is not on record here.

A word on the CC50: it is the concentration at which the toxic effect on the cells reaches its halfway point. As usually defined, the IC50 is the concentration that gives 50% inhibition. With `Cc1c(C)[n+](Cc2ccccc2)cn1Cc1ccccc1` [1a[PF6]], in [1], the “Cell line (viability %) HPIV-3” value was found to be 62.4%. For the same molecule, the “Cell line (viability %) AdV5” value in [2] is 15.3%. Further, the “Cell line (viability %) HSV-1” value in data set [3] came out at 17.5%. Moreover, in data set [4], the “Cell line (viability %) EMCV” value is listed as 7.8%. Besides, in the data set with HeLa cells [5], the “Cell line (viability %) HeLa” value turned out to be 23.4%. Moreover, the “Cell line (viability %) Vero” value with Vero cells [6] was found to be 89.0%. For the same molecule, the half-maximal cytotoxic concentration (CC50) in the data set with LLC-MK2 cells [7] (setting [27]) is less than 80 µM; in the data set on LLC-MK2 cells [7] (setting [28]), 32.7 ± 6.81 µM. Besides, the “Cell line (viability %) MRC-5” value in the data set with MRC-5 cells [8] was determined as 78.6%. Also, the “Cell line (viability %) LLC-MK2” value in the data set on LLC-MK2 cells [9] stood at 90.3%. In addition, the half-inhibitory concentration (IC50) in data set [10] (setting [29]) was more than 3.27e-05 M. In addition, the “Cell line (viability %) NCTC clone 929” value in the data set on NCTC clone 929 cells [11] came to 56.2%.
As to `COc1cccc(Cn2c[n+](Cc3ccccc3)c(C)c2C)c1` [1c[PF6]], in data set [1], the “Cell line (viability %) HPIV-3” value came to 91.1%. Moreover, the “Cell line (viability %) AdV5” value in data set [2] came to 17.1%. Besides, in data set [3], the “Cell line (viability %) HSV-1” value is given as 23.3%. The “Cell line (viability %) EMCV” value in data set [4] was found to be 7.9%. Further, the “Cell line (viability %) HeLa” value with HeLa cells [5] worked out at 11.4%. Further, the “Cell line (viability %) Vero” value in the data set with Vero cells [6] was found to be 91.3%. Further, the CC50 is less than 80 µM in the data set on LLC-MK2 cells [7] (setting [27]) and 75.3 ± 5.51 µM in the data set with LLC-MK2 cells [7] (setting [28]). The “Cell line (viability %) MRC-5” value in the data set with MRC-5 cells [8] is 76.9%. The “Cell line (viability %) LLC-MK2” value in the data set on LLC-MK2 cells [9] is given as 55.6%. For the same molecule, the IC50 in data set [10] (setting [29]) is more than 7.53e-05 M. Further, the “Cell line (viability %) NCTC clone 929” value in the data set with NCTC clone 929 cells [11] is listed as 8.5%.
As to `Cc1c(C)[n+](Cc2cccc(F)c2)cn1Cc1ccccc1` [1e[PF6]] [1-Benzyl-3-(3-fluorobenzyl)-4,5-dimethylimidazolium hexafluorophosphate], the CC50 worked out at 150 ± 4.17 µM in the data set with MRC-5 cells [12]; 148 ± 11.5 µM in the data set on NCTC clone 929 cells [13]; 150 ± 2.52 µM in the data set on LLC-MK2 cells [7] (setting [27]); 38 ± 3.46 µM in the data set with A549 cells; 56.3 ± 3.21 µM in the data set on Vero cells [14]; 317 ± 5.77 µM in the data set on HepG2 cells. The CC50 in the data set with HeLa cells [15] worked out at 80 ± 1 nM.
Broadly, the melting point is the temperature, or range, at which the solid turns liquid. Turning to `Cc1c(C)[n+](Cc2cccc(F)c2)cn1Cc1ccccc1.[Cl-]` [Compound 1e, 1-Benzyl-3-(3-fluorobenzyl)-4,5-dimethylimidazolium chloride], the melting point lay in the range of 190 to 192 °C. In the data set on MRC-5 cells [12], the CC50 worked out at 52.7 ± 0.577 µM. In addition, the CC50 at 48 h in data set [16] was found to be 79.2 ± 1.44 µM. Moreover, the CC50 with LLC-MK2 cells [7] (setting [27]) is 53.5 ± 2.18 µM. In data set [17], the CC50 at 48 h amounted to 37.7 ± 3.79 µM. For the same molecule, in data set [10] (setting [30]), the IC50 was more than 5.35e-05 M. Further, in [18], the IC50 is more than 39 nM. In data set [19], this molecule displayed an IC50 of more than 22.7 µM. In addition, the half-maximal inhibitory concentration (IC50) in [20] is more than 79.2 µM. Besides, the CC50 in the data set on Vero cells [14] worked out at 22.7 ± 1.53 µM. In [21], the IC50 was more than 52.7 µM. In data set [22], the CC50 at 48 h came out at 423 ± 7.64 µM. In addition, the half-maximal cytotoxic concentration (CC50) with HeLa cells [15] worked out at 39 ± 1 nM.
As for `Cc1c(C)[n+](Cc2cccc(C(F)(F)F)c2)cn1Cc1ccccc1.[Cl-]` [Compound 1g, 1-Benzyl-4,5-dimethyl-3-[3-(trifluoromethyl)benzyl]imidazolium chloride], the melting point was in the range of 120 to 122 °C. In addition, the CC50 at 48 h in data set [23] amounted to 54.3 ± 1.16 µM. The CC50 at 48 h in data set [16] was 30 ± 2 µM. Also, in data set [24], the CC50 at 48 h stood at 66.2 ± 2.25 µM. Further, the CC50 at 48 h in data set [17] was 10.3 ± 1.04 µM. Also, the IC50 in [10] (setting [30]) was more than 6.62e-05 M. For the same molecule, in [18], the IC50 was more than 53 nM. The molecule also yielded a half-inhibitory concentration (IC50) in [19] of more than 0.107 µM. Further, the IC50 in [20] is more than 30 µM. Also, the CC50 at 48 h in [25] turned out to be 107 ± 12 nM. Further, the “CC50 Normal Cell Lines Vero” value in the data set with Vero cells [14] is given as “toxic”. This molecule yielded an IC50 in data set [21] of more than 54.3 µM. Moreover, the CC50 at 48 h in data set [22] stood at 130 ± 5 µM. In data set [26], the CC50 at 48 h stood at 53 ± 6 nM.
